In article PMC12904088, “Development of Dimethylsulfonium Probes for Broad Profiling of Methyllysine Reader Proteins” (Advanced Science, 2025):
Square brackets hold non-standard residues; d marks the D form. Ends that are not written are not given here. Lys(Me3) = C[N+](C)(C)CCCC[C@H](N)C(=O)O

What was measured:
PRC2 = settings: cited from earlier work
Excerpt: (§1) Reader proteins, which specifically recognize methylation modifications at specific sites, are crucial for the biological functions of lysine methylation (Figure 1A).^[ [11], [12], [13], [14] ^] For example, BPTF is a reader of H3K4me3 that is in the NURF complex for RNA polymerase II activities.^[ [15] ^] CBX1 is a reader of H3K9me3 that promotes liquid‐liquid phase separation for the formation of heterochromatin. As a result, the local genes in chromatin are condensed and not accessible to transcription.^[ [16], [17], [18] ^] In addition, readers also play important roles in tumorigenesis. F ...

tumor growth = settings: mouse models; cited from earlier work
Excerpt: as §1

[1] = test system: HeLa cell nuclei proteins; assay: Proteomic experiment for inhibitor evaluation: probe 12 with MS31 competition; format: cell-based, Homo sapiens
Procedure: HeLa cells (1.8 × 10^7) were harvested, washed with pre‐cooled phosphate buffer saline (PBS), and lysed in hypotonic buffer (10 mM Tris, 15 mM NaCl, 1.5 mM MgCl2, 0.2 mM PMSF, pH 7.5) on ice with regular inversion for 10–15 min. After centrifugation at 200 g for 5 min at 4°C, the pellet was resuspended in hypotonic buffer and homogenized with three strokes of a loose pestle Dounce homogenizer. The intact nuclei were washed with a hypotonic buffer and collected by centrifugation. Then, the nuclei were resuspended in crosslink buffer (100 mM HEPES, 150 mM KCl, 1.5 mM MgCl2, 0.2 mM PMSF, pH 7.5) and divided into two groups (Group A and Group B), each of which contained three parallel samples. The general probe was added to Group A. The same amount of the general probe and extra competing peptides was added to Group B. These samples were transferred to a 24‐well plate, incubated on ice for 10 min, and irradiated under 313 nm UV for 20 min on ice. Next, the nuclei were washed with crosslinking buffer three times. […]
Label‐free quantification was performed with Proteome Discoverer 2.5, which was used for database searches against the Homo sapiens (Human) proteome database retrieved from UniProtKB (accession UP000005640). […]

SPIN2B [2] = assay: Western blot: inhibition of crosslinking of probe 12 by MS31; format: biochemical, human; settings: 2.5 mM probe 12, 10 µM SPIN2B, 200 µM MS31, 0.5% DMSO, UV 30 min, streptavidin-HRP blot; Figure 5D
Procedure: BPTF, CBX1, and SPIN1 were expressed and purified as previously reported.^[ [54], [59] ^] Full‐length SPIN2B (residues 1–258) from human was cloned into the pET‐28a vector with an N‐terminal 6×His‐SUMO‐tag. It was over‐expressed in Rosetta (DE3) Escherichia coli cells by induction of 0.25 mM isopropyl β‐D‐thiogalactoside (IPTG) at 16 °C overnight when OD600 reached 0.6–0.8 in the LB medium. The harvested cells were suspended in lysis buffer (20 mM Tris, 150 mM NaCl, 0.2 mM PMSF, pH 7.5) and lysed by sonication; then, the cell lysate was centrifuged to remove the insoluble cell debris. The clarified supernatant was loaded on nickel resin equilibrated in lysis buffer. Afterward, the protein‐bound resin was washed sequentially with lysis buffer, high salt buffer (20 mM Tris, 500 mM NaCl, pH 7.5), and 20 mM imidazole buffer (20 mM Tris, 150 mM NaCl, 20 mM imidazole, pH 7.5). The target proteins were eluted by 200 mM imidazole buffer (20 mM Tris, 150 mM NaCl, 200 mM imidazole, pH 7.5), followed by the solution exchanged to storage buffer (20 mM Tris, 150 mM NaCl, pH 7.5). The product was concentrated, snap‐frozen, and stored at −80°C. […]
For SPIN1 and SPIN2B found in the volcano plot, 5 sets of samples were designed, respectively. […] Finally, the membranes were washed with 1×TBST buffer three times, and the protein bands were detected by enhanced chemiluminescence reagent.

SPIN1 = settings: cited from earlier work
Excerpt: (§2) To verify this approach, we selected MS31, a potent and selective fragment‐like inhibitor that primarily targets the H3K4me3 reader SPIN1 by binding to its Tudor2 domain.^[ [64], [65], [66] ^] […] We used peptide 12, which replaced desthiobiotin of peptide 5 with biotin to enhance binding affinity to streptavidin beads, for a prot ...

SPIN2B [3] = settings: cited from earlier work
Excerpt: as §2

SPIN4 = settings: cited from earlier work
Excerpt: as §2

[4] = test system: broad panel of other epigenetic readers and writers; settings: cited from earlier work
Excerpt: as §2

[5] = test system: reader proteins (BPTF, CBX1); assay: In vitro crosslinking validation of general competition peptide; format: biochemical; settings: 2.5 mM general probe, 7.5 mM peptide 13, 10 µM reader, pH 7.5, UV 30 min; Figure 6B
Procedure: Probes were added to the crosslinking buffer (100 mM HEPES, pH 7.5), followed by the addition of reader proteins. The mixture was transferred to 96‐well plates and incubated on ice for 10 min. After UV irradiation on ice at an energy of 720 mJ cm^−2, the samples were analyzed by UPLC‐Q‐TOF‐MS. The analytical yield was calculated based on the mass peak areas as previously reported.^[ [55] ^] The yield is calculated as the peak area of the desired product divided by the sum of the peak areas of the crosslinking products and the starting material, multiplied by 100%. For crosslinking readers with general probes: The mixture of 5 mM general probes and 10 µM reader proteins (BPTF, CBX1, CDYL2) was crosslinked by the General procedure for crosslinking for 30 min. For competition assays, the mixture of 2.5 mM general probes, 100 µM H3K4me3 (1‐15) or H3K9me3 (1‐15) peptide or 7.5 mM […]me3GG, 10 µM reader proteins (BPTF, CBX1) was crosslinked by the General procedure for crosslinking for 20 min (H3K4me3 or H3K9me3 for competition) or 30 min ([…]me3GG for competition). For Kinetics of reader crosslinking: The mixture of 0.625/1.25/2.5/5/10 mM general probe and 10 µM reader proteins was crosslinked by the General procedure for crosslinking for 20 min. […]

CS(=O)(=O)c1ccc(-c2cnc(NCc3ccco3)n3cnnc23)cc1 [EED226]
PRC2 activity inhibition (in words) (PRC2): effectively inhibits PRC2 activity | Tumor growth suppression (in words) (tumor growth): suppresses tumor growth in mouse models

COc1c(CN)cc(CN)cc1OCCCN1Cc2ccccc2C1 [MS31]
Proteins significantly enriched (MS31 competition) ([1]; 2.5 mM probe 12 vs + 200 µM MS31, 313 nm UV 20 min, Log2(Fold Change) ≥0.5, p ≤ 0.05, n = 3): 21 proteins | Known MS31 targets identified among enriched proteins ([1]; 2.5 mM probe 12 vs + 200 µM MS31, Log2(Fold Change) ≥0.5, p ≤ 0.05, n = 3): the expected primary target SPIN1 was identified, along with two other SPIN family members, SPIN4 and SPIN2B | Inhibition of crosslinking between SPIN2B and probe 12 (SPIN2B [2]): can be inhibited by MS31 | Kd (SPIN1): 91 nM | Binding affinity (in words) (SPIN2B [3]): moderate binding affinity | Binding affinity (in words) (SPIN4): moderate binding affinity | Selectivity (in words) [4]: high selectivity over a broad panel of other epigenetic readers and writers

RKGGGGGG[Lys(Me3)]GG [peptide 13]
Competition of general probe crosslinking by peptide 13 [5]: three equivalents of the peptide were sufficient to achieve complete competition
